# Biological target: human SQOR (sulfide quinone oxidoreductase) (Homo sapiens, UniProt Q9Y6N5)
# Test: absorption spectroscopy, charge transfer complex formation
# Type: binding
# Settings: covalent; 5 mM sulfite, 5 μM native SQOR, 20 °C, 1 min
# Sequence of human SQOR (sulfide quinone oxidoreductase) (Q9Y6N5 42-450): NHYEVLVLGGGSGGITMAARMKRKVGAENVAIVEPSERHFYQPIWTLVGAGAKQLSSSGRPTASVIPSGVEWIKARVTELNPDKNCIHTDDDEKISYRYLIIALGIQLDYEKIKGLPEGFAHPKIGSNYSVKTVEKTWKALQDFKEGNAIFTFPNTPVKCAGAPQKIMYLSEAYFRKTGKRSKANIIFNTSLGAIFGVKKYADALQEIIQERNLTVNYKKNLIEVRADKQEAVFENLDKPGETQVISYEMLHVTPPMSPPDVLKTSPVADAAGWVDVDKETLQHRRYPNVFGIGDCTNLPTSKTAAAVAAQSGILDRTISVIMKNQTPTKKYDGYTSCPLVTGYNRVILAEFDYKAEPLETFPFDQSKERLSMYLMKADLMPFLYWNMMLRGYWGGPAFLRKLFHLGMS
structure (smiles),measurement,value
O=S(O)O [sulfite],"absorption spectroscopy, charge transfer complex formation","sulfite treatment, which forms a strong CT complex when added to native SQOR"
